Biological target: T1, rat mGlu2 (Rattus norvegicus, UniProt P31421)
T1 construct: expressed in transfected cells
Experiment: mGlu2 Ca2+ flux assay
Type: cell-based
Details: for IC50: Gα15 HEK293 cells stably expressing rat mGlu2, glutamate EC80 addition, read-out: rat mGlu2 IC50; for remaining activity at 30 µM: amplitude of response in the presence of 30 μM test compound as percentage of maximal response to glutamate, read-out: rat mGlu2 Glu max (%)
Protocol: Gα15 HEK293 cells stably expressing rat mGlu2 were plated in black-walled, clear-bottomed, poly-D-lysine coated 384-well plates in 20 μL of assay medium (DMEM containing 10% dialyzed FBS, 20 mM HEPES, and 1 mM sodium pyruvate) at a density of 12K cells/well. The cells were grown overnight at 37° C. in the presence of 5% CO2. The next day, medium was removed and the cells incubated with 20 μL of 2.3 μM Fluo-4, AM prepared as a 2.3 mM stock in DMSO and mixed in a 1:1 ratio with 10% (w/v) pluronic acid F-127 and diluted in assay buffer (Hank's balanced salt solution, 20 mM HEPES, and 2.5 mM probenecid) for 45 minutes at 37° C. Dye was removed, 20 μL of assay buffer was added, and the plate was incubated for 5 minutes at room temperature.
Ca^2+ flux was measured using the Functional Drug Screening System (FDSS7000, Hamamatsu, Japan). After establishment of a fluorescence baseline for about 3 seconds, the compounds of the present invention were added to the cells, and the response in cells was measured. 2.3 minutes later an EC20 concentration of the mGlu2 receptor agonist glutamate was added to the cells, and the response of the cells was measured for 1.9 minutes; an EC80 concentration of agonist was added and readings taken for an additional 1.7 minutes. All test compounds were dissolved and diluted to a concentration of 10 mM in 100% DMSO. Compounds were then serially diluted 1:3 in DMSO into 10 point concentration response curves, transferred to daughter plates, and further diluted into assay buffer to a 2× stock. Calcium fluorescence measures were recorded as fold over basal fluorescence; raw data was then normalized to the maximal response to glutamate. Antagonism of the agonist response of the mGlu2 receptor in the present invention was observed as a decrease in response to nearly maximal concentrations of glutamate in the presence of compound compared to the response to glutamate in the absence of compound.
The raw data file containing all time points was used as the data source in the analysis template. This was saved by the FDSS as a tab-delimited text file. Data were normalized using a static ratio function (F/F0) for each measurement of the total 360 values per well divided by each well's initial value. Data were then reduced to peak amplitudes (Max−Initial Min) using a time range that starts approximately 3 seconds prior to the glutamate EC80 addition and continues for approximately 90 seconds. This is sufficient time to capture the peak amplitude of the cellular calcium response. Individual amplitudes were expressed as % ECMax by multiplying each amplitude by 100 and then dividing the product by the mean of the amplitudes derived from the glutamate ECMax-treated wells. IC50 values for test compounds were generated by fitting the normalized values versus the log of the test compound concentration (in mol/L) using a 4 parameter logistic equation where none of the parameters were fixed. Each of the three values collected at each concentration of test compound were weighted evenly.
For NAMs, potency (IC50) and maximum response (% Glu Max), i.e. the amplitude of response in the presence of 30 μM test compound as a percentage of the maximal response to glutamate, are reported. […] Compounds with no measurable activity are designated as “>30,000 nM” since the top concentration of compound tested in the assay is 30 μM.

T1 sequence (P31421 19-872): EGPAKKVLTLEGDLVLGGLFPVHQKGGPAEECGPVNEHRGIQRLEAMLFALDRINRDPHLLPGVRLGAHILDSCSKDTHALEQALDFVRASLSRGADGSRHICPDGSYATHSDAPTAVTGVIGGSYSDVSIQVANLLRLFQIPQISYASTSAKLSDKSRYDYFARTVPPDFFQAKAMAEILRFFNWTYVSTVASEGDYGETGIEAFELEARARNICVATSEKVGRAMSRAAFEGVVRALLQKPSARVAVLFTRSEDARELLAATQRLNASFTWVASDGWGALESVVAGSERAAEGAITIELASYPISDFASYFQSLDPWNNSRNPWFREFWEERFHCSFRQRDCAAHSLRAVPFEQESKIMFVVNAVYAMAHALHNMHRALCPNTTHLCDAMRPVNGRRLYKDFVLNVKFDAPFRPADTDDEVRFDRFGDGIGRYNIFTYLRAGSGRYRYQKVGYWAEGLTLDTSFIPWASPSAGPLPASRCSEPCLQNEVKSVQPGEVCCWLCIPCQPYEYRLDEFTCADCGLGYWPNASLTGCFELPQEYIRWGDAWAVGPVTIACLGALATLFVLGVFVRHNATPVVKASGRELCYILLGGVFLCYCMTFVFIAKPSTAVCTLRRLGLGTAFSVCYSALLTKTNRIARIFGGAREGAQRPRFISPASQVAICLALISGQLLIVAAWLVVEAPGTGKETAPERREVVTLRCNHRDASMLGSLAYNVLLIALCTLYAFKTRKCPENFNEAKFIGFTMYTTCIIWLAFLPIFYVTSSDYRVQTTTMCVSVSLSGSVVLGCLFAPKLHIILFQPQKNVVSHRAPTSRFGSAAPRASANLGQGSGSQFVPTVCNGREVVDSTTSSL

SMILES	IC50 [µM]	remaining activity at 30 µM [%]
NC(=O)c1cn(-c2ccc(F)cc2)c2ccc(NCCN3CCOCC3)cc2c1=O [Compound 28, 1-(4-fluorophenyl)-6-((2-morpholinoethyl)amino)-4-oxo-1,4-dihydroquinoline-3-carboxamide]	1.15	0.77
Cc1ncc(COc2ccc3c(c2)c(=O)c(C(N)=O)cn3-c2ccc(F)cc2)cn1 [Compound 29, 1-(4-fluorophenyl)-6-((2-methylpyrimidin-5-yl)methoxy)-4-oxo-1,4-dihydroquinoline-3-carboxamide]	0.843	1.92
CC(Oc1ccc2c(c1)c(=O)c(C(N)=O)cn2-c1ccc(F)cc1)c1cccnc1 (stereo not drawn) [Compound 30, 1-(4-fluorophenyl)-4-oxo-6-(1-(pyridin-3-yl)ethoxy)-1,4-dihydroquinoline-3-carboxamide]	0.391 ± 0.044	1.31 ± 0.45
Cc1ncc(CN(C)c2ccc3c(c2)c(=O)c(C(N)=O)cn3-c2ccc(F)cc2)cn1 [Compound 31, 1-(4-fluorophenyl)-6-(methyl((2-methylpyrimidin-5-yl)methyl)amino)-4-oxo-1,4-dihydroquinoline-3-carboxamide]	0.153 ± 0.033	1.86 ± 0.26
NC(=O)c1cn(-c2ccc(F)cc2)c2ccc(COc3ccncc3F)cc2c1=O [Compound 32, 1-(4-fluorophenyl)-6-(((3-fluoropyridin-4-yl)oxy)methyl)-4-oxo-1,4-dihydroquinoline-3-carboxamide]	0.243 ± 0.063	1.83 ± 0.2
Cc1cc(OCc2ccc3c(c2)c(=O)c(C(N)=O)cn3-c2ccc(F)cc2)ccn1 [Compound 33, 1-(4-fluorophenyl)-6-(((2-methylpyridin-4-yl)oxy)methyl)-4-oxo-1,4-dihydroquinoline-3-carboxamide]	0.421	2.18
NC(=O)c1cn(-c2ccc(F)cc2)c2ccc(COc3ccnc(C(F)(F)F)c3)cc2c1=O [Compound 34, 1-(4-fluorophenyl)-4-oxo-6-(((2-(trifluoromethyl)pyridin-4-yl)oxy)methyl)-1,4-dihydroquinoline-3-carboxamide]	0.534	1.97
Cc1ncc(OCc2ccc3c(c2)c(=O)c(C(N)=O)cn3-c2ccc(F)cc2)cn1 [Compound 35, 1-(4-fluorophenyl)-6-(((2-methylpyrimidin-5-yl)oxy)methyl)-4-oxo-1,4-dihydroquinoline-3-carboxamide]	0.287 ± 0.051	1.71 ± 0.2
NC(=O)c1cn(-c2ccc(F)cc2)c2ccc(COc3ccc(C(F)(F)F)nc3)cc2c1=O [Compound 36, 1-(4-fluorophenyl)-4-oxo-6-(((6-(trifluoromethyl)pyridin-3-yl)oxy)methyl)-1,4-dihydroquinoline-3-carboxamide]	1.46	1.28
NC(=O)c1cn(-c2ccc(F)cc2)c2ccc(COc3ccc(Cl)nc3)cc2c1=O [Compound 37, 6-(((6-chloropyridin-3-yl)oxy)methyl)-1-(4-fluorophenyl)-4-oxo-1,4-dihydroquinoline-3-carboxamide]	0.203 ± 0.042	1.7 ± 0.12
NC(=O)c1cn(-c2ccc(F)cc2)c2ccc(N3CCCCC3c3cccnc3)cc2c1=O (stereo not drawn) [Compound 38, 1-(4-fluorophenyl)-4-oxo-6-(2-(pyridin-3-yl)piperidin-1-yl)-1,4-dihydroquinoline-3-carboxamide]	0.9	1.68
NC(=O)c1cn(-c2ccc(F)cc2)c2ccc(COc3cccnc3F)cc2c1=O [Compound 39, 1-(4-fluorophenyl)-6-(((2-fluoropyridin-3-yl)oxy)methyl)-4-oxo-1,4-dihydroquinoline-3-carboxamide]	0.883	0.83
NC(=O)c1cn(-c2ccc(F)cc2)c2ccc(N3CCCC3c3cccnc3)cc2c1=O (stereo not drawn) [Compound 40, 1-(4-fluorophenyl)-4-oxo-6-(2-(pyridin-3-yl)pyrrolidin-1-yl)-1,4-dihydroquinoline-3-carboxamide]	0.429	1.81
Cc1ccc(OCc2ccc3c(c2)c(=O)c(C(N)=O)cn3-c2ccc(F)cc2)cn1 [Compound 41, 1-(4-fluorophenyl)-6-(((6-methylpyridin-3-yl)oxy)methyl)-4-oxo-1,4-dihydroquinoline-3-carboxamide]	0.265 ± 0.073	1.62 ± 0.23
CCN(Cc1cccnc1)c1ccc2c(c1)c(=O)c(C(N)=O)cn2-c1ccc(F)cc1 [Compound 42, 6-(ethyl(pyridin-3-ylmethyl)amino)-1-(4-fluorophenyl)-4-oxo-1,4-dihydroquinoline-3-carboxamide]	0.167	2.57
NC(=O)c1cn(-c2ccc(F)cc2)c2ccc(N3Cc4cccnc4C3)cc2c1=O [Compound 43, 1-(4-fluorophenyl)-4-oxo-6-(5H-pyrrolo[3,4-b]pyridin-6(7H)-yl)-1,4-dihydroquinoline-3-carboxamide]	5.04	1.85
NC(=O)c1cn(-c2ccc(F)cc2)c2ccc(OCc3cccnc3)cc2c1=O [Compound 44, 1-(4-fluorophenyl)-4-oxo-6-(pyridin-3-ylmethoxy)-1,4-dihydroquinoline-3-carboxamide]	1.08	1.67
NC(=O)c1cn(-c2ccc(F)cc2)c2ccc(COc3ccc(F)nc3)cc2c1=O [Compound 45, 1-(4-fluorophenyl)-6-(((6-fluoropyridin-3-yl)oxy)methyl)-4-oxo-1,4-dihydroquinoline-3-carboxamide]	0.352	1.47
NC(=O)c1cn(-c2ccc(F)cc2)c2ccc(CCc3ccnc(C(F)(F)F)c3)cc2c1=O [Compound 46, 1-(4-fluorophenyl)-4-oxo-6-(2-(2-(trifluoromethyl)pyridin-4-yl)ethyl)-1,4-dihydroquinoline-3-carboxamide]	0.269	0.78
NC(=O)c1cn(-c2ccc(F)cc2)c2ccc(CCc3ccc(C(F)(F)F)nc3)cc2c1=O [Compound 47, 1-(4-fluorophenyl)-4-oxo-6-(2-(6-(trifluoromethyl)pyridin-3-yl)ethyl)-1,4-dihydroquinoline-3-carboxamide]	1.55	1.21
NC(=O)c1cn(-c2ccc(F)cc2)c2ccc(CCc3cncc(F)c3)cc2c1=O [Compound 48, 1-(4-fluorophenyl)-6-(2-(5-fluoropyridin-3-yl)ethyl)-4-oxo-1,4-dihydroquinoline-3-carboxamide]	1.03	1.4
Cc1ncc(CCc2cc(F)c3c(c2)c(=O)c(C(N)=O)cn3-c2ccc(F)cc2)cn1 [Compound 49, 8-fluoro-1-(4-fluorophenyl)-6-(2-(2-methylpyrimidin-5-yl)ethyl)-4-oxo-1,4-dihydroquinoline-3-carboxamide]	0.155	1.53
NC(=O)c1cn(-c2ccc(F)cc2)c2ccc(N3CCC(N4CCOCC4)C3)cc2c1=O (stereo not drawn) [Compound 50, 1-(4-fluorophenyl)-6-(3-morpholinopyrrolidin-1-yl)-4-oxo-1,4-dihydroquinoline-3-carboxamide]	1.32	1.08
CN(Cc1cccnc1)c1cc(F)c2c(c1)c(=O)c(C(N)=O)cn2-c1ccc(F)cc1 [Compound 51, 8-fluoro-1-(4-fluorophenyl)-6-(methyl(pyridin-3-ylmethyl)amino)-4-oxo-1,4-dihydroquinoline-3-carboxamide]	1.18	1.39

Source: patent publication US9382208B1, “Negative allosteric modulators of metabotropic glutamate receptor 2” (Vanderbilt University, priority 2015, dated 2016)
